Source: patent US10071974B2, “Morpholine and 1,4-oxazepane amides as somatostatin receptor subtype 4 (SSTR4) agonists” (Boehringer Ingelheim International GmbH, priority 2014, dated 2018)

What was measured:
[1] = biological target: human Somatostatin 4 Receptor (SSTR4) (Homo sapiens (Human), UniProt P31391); assay: cAMP assay with human somatostatin 4 receptor (hSSTR4 expressing H4 cells); assay type: cell-based; conditions: read-out: SSTR4 agonism EC50
human SSTR5 = human SSTR5 (Homo sapiens (Human), UniProt P35346); assay: Radioligand binding assay, CHO cell membranes expressing recombinant human SSTR5
Source text: (§1) Radioligand Binding Assays
(§2) Method description for binding assays with human Somatostatin receptors by use of CHO cell membranes expressing recombinant human SSTR1 or human SSTR2 or human SSTR3 or human SSTR4 or human SSTR5
(§3) Receptor binding assays refer to a technique in which labeled receptor ligands are used to detect binding to a receptor. In competition experiments test compounds, which are not labeled, compete with the binding side of a labeled ligand. The displacement of the labeled ligand by the test compound leads to a decreased signal.
(§4) For the binding experiments 200 μL of membrane homogenate from one of the following protein amounts is used: hSSTR1 (40 μg/well); hSSTR2 (25 μg/well); hSSTR3 (1.5 μg/well); hSSTR4 (0.5 μg/well); hSSTR5 (25 μg/well). The homogenate is incubated with 0.05 nM of radioligand ([3-125I-Tyr]-Somatostatin-(1-14)) in addition to increasing concentrations of a test compound or vehicle (100% binding) in a total volume of 250 μL using a Hepes buffer (10 mM, EDTA 1 mM, MgCl2 5 mM, pH7.6, BSA 0.5%, Bacitracin 0.003%, DMSO 1%) for 180 min at room temperature. The incubation is terminated by filtration with ice cold NaCl 0.9% through polyethyleneimine treated (0.3%) GF/B glass fiber filters using a cell harvester. The protein-bound radioactivity is measured in a suitable reader. The non-specific binding is defined as radioactivity bound in the presence of 1 μM Somatostatin-14 during the incubation period.
(§5) The analysis of the concentration-binding curves is performed by computer-assisted nonlinear least square curve fitting method using the model of one receptor binding site.
(§6) Selectivity data was obtained with the aid of the above described radioligand binding assays.

human SSTR1 = human SSTR1 (Homo sapiens (Human), UniProt P30872); assay: Radioligand binding assay, CHO cell membranes expressing recombinant human SSTR1
Source text: as §1, §2, §3, §4, §5, §6

human SSTR2 = human SSTR2 (Homo sapiens (Human), UniProt P30874); assay: Radioligand binding assay, CHO cell membranes expressing recombinant human SSTR2
Source text: as §1, §2, §3, §4, §5, §6

human SSTR3 = human SSTR3 (Homo sapiens (Human), UniProt P32745); assay: Radioligand binding assay, CHO cell membranes expressing recombinant human SSTR3
Source text: as §1, §2, §3, §4, §5, §6

human SSTR4 = human SSTR4 (Homo sapiens (Human), UniProt P31391); assay: Radioligand binding assay, CHO cell membranes expressing recombinant human SSTR4
Source text: as §1, §2, §3, §4, §5, §6

in vitro = conditions: human, microsomes, pH 7.6

Chain of human Somatostatin 4 Receptor (SSTR4) (P31391 whole entry): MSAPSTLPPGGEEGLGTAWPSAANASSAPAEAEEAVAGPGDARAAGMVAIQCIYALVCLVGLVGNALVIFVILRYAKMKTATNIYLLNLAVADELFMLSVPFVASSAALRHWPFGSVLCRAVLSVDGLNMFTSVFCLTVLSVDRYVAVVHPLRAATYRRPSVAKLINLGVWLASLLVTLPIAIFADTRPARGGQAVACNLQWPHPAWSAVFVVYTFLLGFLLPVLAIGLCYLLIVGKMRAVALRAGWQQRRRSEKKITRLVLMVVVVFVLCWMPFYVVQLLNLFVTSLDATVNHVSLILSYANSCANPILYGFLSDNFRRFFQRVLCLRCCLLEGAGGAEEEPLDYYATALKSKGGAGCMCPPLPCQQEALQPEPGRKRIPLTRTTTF
Chain of human SSTR5 (P35346 whole entry): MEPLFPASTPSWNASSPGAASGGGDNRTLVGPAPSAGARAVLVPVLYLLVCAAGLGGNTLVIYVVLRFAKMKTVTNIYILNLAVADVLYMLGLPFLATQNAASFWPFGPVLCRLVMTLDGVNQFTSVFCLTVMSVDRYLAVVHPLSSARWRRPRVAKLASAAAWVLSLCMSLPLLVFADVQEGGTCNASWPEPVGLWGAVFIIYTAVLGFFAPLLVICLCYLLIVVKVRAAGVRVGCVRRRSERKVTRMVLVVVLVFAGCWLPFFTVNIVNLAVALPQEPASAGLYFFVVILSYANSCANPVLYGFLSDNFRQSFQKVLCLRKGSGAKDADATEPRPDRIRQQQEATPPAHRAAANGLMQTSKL
Chain of human SSTR1 (P30872 whole entry): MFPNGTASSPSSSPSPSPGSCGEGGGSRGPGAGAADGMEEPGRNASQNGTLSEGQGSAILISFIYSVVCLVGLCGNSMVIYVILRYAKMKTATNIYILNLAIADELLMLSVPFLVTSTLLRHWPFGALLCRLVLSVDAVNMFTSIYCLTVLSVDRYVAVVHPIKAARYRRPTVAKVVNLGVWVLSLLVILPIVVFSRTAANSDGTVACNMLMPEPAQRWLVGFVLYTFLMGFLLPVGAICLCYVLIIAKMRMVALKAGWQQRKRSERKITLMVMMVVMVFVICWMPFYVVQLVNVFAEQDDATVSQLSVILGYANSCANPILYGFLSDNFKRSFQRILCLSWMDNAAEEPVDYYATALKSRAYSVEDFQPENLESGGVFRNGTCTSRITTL
Chain of human SSTR3 (P32745 whole entry): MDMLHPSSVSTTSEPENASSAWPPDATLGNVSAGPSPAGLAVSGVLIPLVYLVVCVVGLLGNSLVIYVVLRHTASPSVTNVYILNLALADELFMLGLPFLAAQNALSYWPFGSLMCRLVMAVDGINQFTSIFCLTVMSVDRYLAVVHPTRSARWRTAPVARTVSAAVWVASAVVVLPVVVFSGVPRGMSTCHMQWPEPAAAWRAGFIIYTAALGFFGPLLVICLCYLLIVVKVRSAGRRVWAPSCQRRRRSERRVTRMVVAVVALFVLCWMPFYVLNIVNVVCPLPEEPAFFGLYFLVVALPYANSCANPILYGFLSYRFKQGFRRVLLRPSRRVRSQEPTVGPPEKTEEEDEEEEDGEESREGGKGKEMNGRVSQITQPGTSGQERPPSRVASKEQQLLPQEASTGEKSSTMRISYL
Chain of human SSTR2 (P30874 whole entry): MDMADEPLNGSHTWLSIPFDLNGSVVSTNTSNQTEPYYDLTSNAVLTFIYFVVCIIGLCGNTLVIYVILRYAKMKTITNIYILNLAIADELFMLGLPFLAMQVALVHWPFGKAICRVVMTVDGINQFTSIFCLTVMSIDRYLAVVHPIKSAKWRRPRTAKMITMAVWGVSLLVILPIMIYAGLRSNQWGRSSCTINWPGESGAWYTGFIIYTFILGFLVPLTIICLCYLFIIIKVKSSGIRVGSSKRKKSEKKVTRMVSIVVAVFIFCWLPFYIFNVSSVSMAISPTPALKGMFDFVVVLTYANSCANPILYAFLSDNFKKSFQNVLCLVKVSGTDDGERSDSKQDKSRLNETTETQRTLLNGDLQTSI
Chain of human SSTR4 (P31391 whole entry): as the sequence (P31391 whole entry) above

## CC(C)(NC(=O)[C@@H]1CNCCO1)c1ccnc2ccccc12 [Example 11]
[1]
  EC50: 26.3 nM

## CC(C)(NC(=O)C1CNCCOC1)c1nc2ccc(Cl)cc2[nH]1 (centres unmarked) [Example 13]
[1]
  EC50: 356 nM

## CC(C)(NC(=O)[C@@H]1CNCCO1)c1nc2ccc(Cl)cc2[nH]1 [Example 14]
[1]
  EC50: 796 nM

## Cc1ccccc1OCC(C)(C)NC(=O)[C@@H]1CNCCO1 [Example 15]
[1]
  EC50: 244 nM

## Cn1nc(C(C)(C)NC(=O)[C@@H]2CNCCO2)c2ccccc21 [Example 19]
Human SSTR5
  Ki: 9860 nM
[1]
  EC50: 13.3 nM
Human SSTR1
  Ki: 9010 nM
Human SSTR2
  Ki: 9630 nM
Human SSTR3
  Ki: 8710 nM
Human SSTR4
  Ki: 194 nM
In vitro
  half-life at 1 μM: > 2.17 h

## Cn1nc(C(C)(C)NC(=O)[C@@H]2CNCCO2)c2c(F)cccc21 [Example 29]
[1]
  EC50: 21.6 nM

## Cn1nc(C(C)(C)NC(=O)[C@@H]2CNCCO2)c2ccc(F)cc21 [Example 30]
[1]
  EC50: 13.1 nM
In vitro
  half-life at 1 μM: > 2.17 h

## Cn1nc(C(C)(C)NC(=O)[C@@H]2CNCCO2)c2cccc(C(F)(F)F)c21 [Example 31]
[1]
  EC50: 52.7 nM

## Cc1cccc2c(C(C)(C)NC(=O)[C@@H]3CNCCO3)cnn12 [Example 32]
[1]
  EC50: 10.9 nM

## Cc1nnc(C(C)(C)NC(=O)[C@@H]2CNCCO2)c2ccccc12 [Example 36]
[1]
  EC50: 25.4 nM

## Cc1ncc(C(C)(C)NC(=O)[C@@H]2CNCCO2)c2ccccc12 [Example 38]
[1]
  EC50: 1.3 nM
In vitro
  half-life at 1 μM: > 2.17 h

## Cc1ncc(C(C)(C)NC(=O)[C@H]2CNCCO2)c2ccccc12 [Example 39]
[1]
  EC50: 180 nM

## Cc1cc2ccccc2c(C(C)(C)NC(=O)[C@@H]2CNCCO2)n1 [Example 43]
In vitro
  half-life at 1 μM: 1.83 h

## Cc1cccc2c(C(C)(C)NC(=O)[C@@H]3CNCCO3)n[nH]c12 [Example 57]
[1]
  EC50: 2.4 nM
In vitro
  half-life at 1 μM: > 2.17 h

## CC(C)(NC(=O)[C@@H]1CNCCO1)c1noc2c(F)cccc12 [Example 61]
[1]
  EC50: 147 nM

## CC(C)(NC(=O)[C@@H]1CNCCO1)c1noc2c(Cl)cccc12 [Example 71]
[1]
  EC50: 35.1 nM

## CC(C)(NC(=O)[C@@H]1CNCCO1)c1n[nH]c2c(F)cccc12 [Example 87]
[1]
  EC50: 13.4 nM

## CC(C)(NC(=O)[C@@H]1CNCCO1)c1n[nH]c2c(Cl)cccc12 [Example 91]
[1]
  EC50: 3.4 nM
In vitro
  half-life at 1 μM: > 2.17 h

## Cc1cccn2c(C(C)(C)NC(=O)[C@@H]3CNCCO3)ncc12 [Example 95]
Human SSTR5
  Ki: 9770 nM
[1]
  EC50: 4.5 nM
Human SSTR1
  Ki: 9480 nM
Human SSTR2
  Ki: 9630 nM
Human SSTR3
  Ki: 8690 nM
Human SSTR4
  Ki: 218 nM
In vitro
  half-life at 1 μM: > 2.17 h

## CC(C)(NC(=O)[C@@H]1CNCCO1)c1ncc2c(Cl)cccn12 [Example 96]
[1]
  EC50: 13 nM
In vitro
  half-life at 1 μM: > 2.17 h

## Cc1cccn2c(C3(NC(=O)[C@@H]4CNCCO4)CC3)ncc12 [Example 97]
[1]
  EC50: 40.8 nM

## Cc1cc(F)cn2c(C(C)(C)NC(=O)[C@@H]3CNCCO3)ncc12 [Example 100]
[1]
  EC50: 103 nM

## Cc1cccn2c(C3(NC(=O)[C@@H]4CNCCO4)CCC3)ncc12 [Example 102]
[1]
  EC50: 31 nM

## CC(C)(NC(=O)[C@@H]1CNCCO1)c1nc(C2CC2)c2c(F)cccn12 [Example 103]
[1]
  EC50: 60.7 nM

## Cc1cccn2c(C(C)(C)NC(=O)[C@@H]3CNCCO3)nc(C3CC3)c12 [Example 104]
[1]
  EC50: 73.5 nM

## Cc1cccn2c(C(C)(C)NC(=O)[C@@H]3CNCCO3)nnc12 [Example 105]
[1]
  EC50: 596 nM

## Cc1nc2ccccn2c1C(C)(C)NC(=O)[C@@H]1CNCCO1 [Example 106]
[1]
  EC50: 230 nM

## Cc1cccn2c(C(C)(C)NC(=O)[C@@H]3CNCCO3)cnc12 [Example 108]
[1]
  EC50: 58.1 nM

## Cc1cccn2c(C(C)(C)NC(=O)[C@@H]3CNCCO3)ccc12 [Example 109]
[1]
  EC50: 3.7 nM
In vitro
  half-life at 1 μM: 1.4 h
